Patent US6362369B1, “Phthalic acid diamide derivatives fluorine-containing aniline compounds as starting material, agricultural and horticultural insecticides, and a method for application of the insecticides” (Nihon Nohyaku Co., Ltd., priority 1997, dated 2002)

Assays:
Assay type in all cases: in vivo
[1] = tested on: diamondback moth (Plutella xylostella); test: Insecticidal effect on diamondback moth (Test Example 1); settings: for Insecticidal effect, Test Example 1: diamondback moth, judged by the mortality criterion of Test Example 1
How it was run: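 Triplicate groups of 10 insects were scored: six days after immersion of oviposited Chinese cabbage seedlings and holding at 25 °C post air-drying, hatched larvae were counted. Mortality derived from these counts and insecticidal effect judged by a set criterion.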

[2] = tested on: common cutworm (Spodoptera Litura); test: Insecticidal effect on common cutworm (Test Example 2); settings: 500 ppm, eight days after inoculation, 25° C.; for Insecticidal effect, Test Example 2: cabbage leaf immersed, second-instar larvae of common cutworm
How it was run: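 2nd-instar larvae on air-dried treatment, closed dish, 25° C; dead/alive counted at day 8. Mortality calculated, graded by criterion. 3 × 10 insects.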

[3] = tested on: rice leafroller (Cnaphalocrocis medinalis); test: Insecticidal effect on rice leafroller (Test Example 3); settings: 500 ppm, four days after inoculation, 25° C., humidity 70%; for Insecticidal effect, Test Example 3: rice lamina immersed, third-instar larvae of rice leafroller
How it was run: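 Insecticidal effect is judged by a predefined criterion from dead/alive counts four days after infesting air-dried lamina with third-instar larvae, kept on moistened filter paper at 25° C, 70% humidity.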

## COc1ccc(NC(=O)c2cccc(I)c2C(=O)NC(C)C)c(C)c1C [compound 378]
[1]
  Insecticidal effect, Test Example 1: A (100)
[2]
  Insecticidal effect, Test Example 2: D (79-50)
[3]
  Insecticidal effect, Test Example 3: A (100)

## Cc1cc(OCC(F)(F)F)ccc1NC(=O)c1cccc(I)c1C(=O)NC(C)C [compound 379]
[1]
  Insecticidal effect, Test Example 1: A (100)
[2]
  Insecticidal effect, Test Example 2: A (100)
[3]
  Insecticidal effect, Test Example 3: A (100)

## Cc1cc(OC(F)(F)C(F)(F)Br)ccc1NC(=O)c1cccc(I)c1C(=O)NC(C)C [compound 380]
[1]
  Insecticidal effect, Test Example 1: A (100)
[2]
  Insecticidal effect, Test Example 2: A (100)
[3]
  Insecticidal effect, Test Example 3: A (100)

## Cc1cc(OC(F)(F)C(F)(Cl)Cl)ccc1NC(=O)c1cccc(I)c1C(=O)NC(C)C [compound 381]
[1]
  Insecticidal effect, Test Example 1: A (100)
[2]
  Insecticidal effect, Test Example 2: A (100)
[3]
  Insecticidal effect, Test Example 3: A (100)

## CC(C)NC(=O)c1c(I)cccc1C(=O)Nc1ccc(OC(F)F)c(F)c1 [compound 382]
[1]
  Insecticidal effect, Test Example 1: A (100)
[2]
  Insecticidal effect, Test Example 2: B (99-90)
[3]
  Insecticidal effect, Test Example 3: A (100)

## CC(C)NC(=O)c1c(I)cccc1C(=O)Nc1ccc(OC(F)F)c(OC(F)F)c1 [compound 385]
[1]
  Insecticidal effect, Test Example 1: A (100)
[2]
  Insecticidal effect, Test Example 2: B (99-90)
[3]
  Insecticidal effect, Test Example 3: A (100)

## Cc1cc(OC(F)(F)F)ccc1NC(=O)c1cccc(I)c1C(=O)NC(C)C [compound 386]
[1]
  Insecticidal effect, Test Example 1: A (100)
[2]
  Insecticidal effect, Test Example 2: A (100)
[3]
  Insecticidal effect, Test Example 3: A (100)

## Cc1cc(OC(F)F)ccc1NC(=O)c1cccc(I)c1C(=O)NC(C)C [compound 387, N^1-(4-difluoromethoxy-2-methylphenyl)-3-iodo-N^2-isopropylphthalic acid diamide]
[1]
  Insecticidal effect, Test Example 1: A (100)
[2]
  Insecticidal effect, Test Example 2: A (100)
[3]
  Insecticidal effect, Test Example 3: A (100)

## Cc1cc(OCC(F)(F)C(F)F)ccc1NC(=O)c1cccc(I)c1C(=O)NC(C)C [compound 388]
[1]
  Insecticidal effect, Test Example 1: A (100)
[2]
  Insecticidal effect, Test Example 2: A (100)
[3]
  Insecticidal effect, Test Example 3: B (99-90)

## Cc1cc(OC(F)(F)Br)ccc1NC(=O)c1cccc(I)c1C(=O)NC(C)C [compound 389]
[1]
  Insecticidal effect, Test Example 1: A (100)
[2]
  Insecticidal effect, Test Example 2: A (100)
[3]
  Insecticidal effect, Test Example 3: A (100)

## Cc1cc(OC(F)(F)C(F)F)ccc1NC(=O)c1cccc(I)c1C(=O)NC(C)C [compound 390]
[1]
  Insecticidal effect, Test Example 1: A (100)
[2]
  Insecticidal effect, Test Example 2: A (100)
[3]
  Insecticidal effect, Test Example 3: A (100)

## Cc1cc(OC(F)(F)C(F)F)c(Cl)cc1NC(=O)c1cccc(I)c1C(=O)NC(C)C [compound 391]
[1]
  Insecticidal effect, Test Example 1: A (100)
[2]
  Insecticidal effect, Test Example 2: A (100)
[3]
  Insecticidal effect, Test Example 3: A (100)

## Cc1cc(OC(F)(F)C(F)Cl)ccc1NC(=O)c1cccc(I)c1C(=O)NC(C)C (stereo not drawn) [compound 392]
[1]
  Insecticidal effect, Test Example 1: A (100)
[2]
  Insecticidal effect, Test Example 2: A (100)
[3]
  Insecticidal effect, Test Example 3: A (100)

## Cc1cc(OC(F)(F)C(F)C(F)(F)F)ccc1NC(=O)c1cccc(I)c1C(=O)NC(C)C (stereo not drawn) [compound 393]
[1]
  Insecticidal effect, Test Example 1: A (100)
[2]
  Insecticidal effect, Test Example 2: A (100)
[3]
  Insecticidal effect, Test Example 3: A (100)

## Cc1cc(OC(F)(F)C(F)(Br)C(F)(F)F)ccc1NC(=O)c1cccc(I)c1C(=O)NC(C)C (stereo not drawn) [compound 394]
[1]
  Insecticidal effect, Test Example 1: A (100)
[2]
  Insecticidal effect, Test Example 2: A (100)
[3]
  Insecticidal effect, Test Example 3: A (100)

## Cc1cc(OC(F)(F)C(F)OC(F)(F)F)ccc1NC(=O)c1cccc(I)c1C(=O)NC(C)C (stereo not drawn) [compound 395]
[1]
  Insecticidal effect, Test Example 1: A (100)
[2]
  Insecticidal effect, Test Example 2: A (100)
[3]
  Insecticidal effect, Test Example 3: A (100)

## Cc1cc(OC(F)F)c(Cl)cc1NC(=O)c1cccc(I)c1C(=O)NC(C)C [compound 396]
[1]
  Insecticidal effect, Test Example 1: A (100)
[2]
  Insecticidal effect, Test Example 2: A (100)
[3]
  Insecticidal effect, Test Example 3: A (100)

## Cc1cc(Oc2c(F)c(F)c(F)c(F)c2F)ccc1NC(=O)c1cccc(I)c1C(=O)NC(C)C [compound 397]
[1]
  Insecticidal effect, Test Example 1: A (100)
[2]
  Insecticidal effect, Test Example 2: A (100)
[3]
  Insecticidal effect, Test Example 3: A (100)

## Cc1cc(Oc2ccc(C(F)(F)F)cn2)ccc1NC(=O)c1cccc(I)c1C(=O)NC(C)C [compound 399]
[1]
  Insecticidal effect, Test Example 1: A (100)
[2]
  Insecticidal effect, Test Example 2: A (100)
[3]
  Insecticidal effect, Test Example 3: A (100)

## Cc1cc(Oc2ncc(C(F)(F)F)cc2Cl)ccc1NC(=O)c1cccc(I)c1C(=O)NC(C)C [compound 400]
[1]
  Insecticidal effect, Test Example 1: A (100)
[2]
  Insecticidal effect, Test Example 2: D (79-50)
[3]
  Insecticidal effect, Test Example 3: A (100)

## Cc1cc(SC(F)(F)C(F)(F)C(F)(F)F)ccc1NC(=O)c1cccc(I)c1C(=O)NC(C)C [compound 403]
[1]
  Insecticidal effect, Test Example 1: A (100)
[2]
  Insecticidal effect, Test Example 2: B (99-90)
[3]
  Insecticidal effect, Test Example 3: A (100)

## Cc1cc(Sc2ccc(Cl)cc2)ccc1NC(=O)c1cccc(I)c1C(=O)NC(C)C [compound 404]
[1]
  Insecticidal effect, Test Example 1: A (100)
[2]
  Insecticidal effect, Test Example 2: A (100)
[3]
  Insecticidal effect, Test Example 3: A (100)

## CC(C)NC(=O)c1c(I)cccc1C(=O)Nc1ccc(OC(F)(F)F)cc1Br [compound 406]
[1]
  Insecticidal effect, Test Example 1: A (100)
[2]
  Insecticidal effect, Test Example 2: A (100)
[3]
  Insecticidal effect, Test Example 3: A (100)

## CC(C)NC(=O)c1c(I)cccc1C(=O)Nc1ccc(C(F)(F)C(F)(F)C(F)(F)F)cc1Cl [compound 407]
[1]
  Insecticidal effect, Test Example 1: A (100)
[2]
  Insecticidal effect, Test Example 2: A (100)
[3]
  Insecticidal effect, Test Example 3: A (100)

## CC(C)NC(=O)c1c(I)cccc1C(=O)Nc1ccc(OC(F)(F)F)cc1Cl [compound 408]
[1]
  Insecticidal effect, Test Example 1: A (100)
[2]
  Insecticidal effect, Test Example 2: B (99-90)
[3]
  Insecticidal effect, Test Example 3: A (100)

## CC(C)NC(=O)c1c(I)cccc1C(=O)Nc1ccc(OC(F)F)cc1C(F)(F)F [compound 409]
[1]
  Insecticidal effect, Test Example 1: A (100)
[2]
  Insecticidal effect, Test Example 2: A (100)
[3]
  Insecticidal effect, Test Example 3: A (100)

## CC(C)NC(=O)c1c(I)cccc1C(=O)Nc1ccc(OC(F)F)c(C(F)(F)F)c1 [compound 410]
[1]
  Insecticidal effect, Test Example 1: A (100)
[2]
  Insecticidal effect, Test Example 2: A (100)
[3]
  Insecticidal effect, Test Example 3: A (100)

## CC(C)NC(=O)c1cccc(I)c1C(=O)Nc1ccc(C(F)(C(F)(F)F)C(F)(F)F)cc1 [compound 416]
[1]
  Insecticidal effect, Test Example 1: A (100)
[2]
  Insecticidal effect, Test Example 2: A (100)
[3]
  Insecticidal effect, Test Example 3: A (100)

## CC(C)NC(=O)c1cccc(I)c1C(=O)Nc1ccc(C(F)(F)C(F)(F)C(F)(F)F)cc1 [compound 417]
[1]
  Insecticidal effect, Test Example 1: A (100)
[2]
  Insecticidal effect, Test Example 2: A (100)
[3]
  Insecticidal effect, Test Example 3: A (100)

## CC(C)NC(=O)c1cccc(I)c1C(=O)Nc1ccc(OC(F)(F)C(F)OC(F)(F)C(F)(F)C(F)(F)F)cc1 (stereo not drawn) [compound 419]
[1]
  Insecticidal effect, Test Example 1: A (100)
[2]
  Insecticidal effect, Test Example 2: A (100)
[3]
  Insecticidal effect, Test Example 3: A (100)

## CC(C)NC(=O)c1cccc(I)c1C(=O)Nc1ccc(SC(F)F)cc1 [compound 421]
[1]
  Insecticidal effect, Test Example 1: A (100)
[2]
  Insecticidal effect, Test Example 2: B (99-90)
[3]
  Insecticidal effect, Test Example 3: A (100)

## Cc1cc(Br)ccc1NC(=O)c1c(I)cccc1C(=O)NC(C)C [compound 430]
[1]
  Insecticidal effect, Test Example 1: A (100)
[2]
  Insecticidal effect, Test Example 2: D (79-50)
[3]
  Insecticidal effect, Test Example 3: D (79-50)

## Cc1c(NC(=O)c2c(I)cccc2C(=O)NC(C)C)cccc1C(F)(F)F [compound 435]
[1]
  Insecticidal effect, Test Example 1: A (100)
[2]
  Insecticidal effect, Test Example 2: B (99-90)
[3]
  Insecticidal effect, Test Example 3: A (100)

## Cc1cc(C(F)(F)F)ccc1NC(=O)c1c(I)cccc1C(=O)NC(C)C [compound 436]
[1]
  Insecticidal effect, Test Example 1: A (100)
[2]
  Insecticidal effect, Test Example 2: B (99-90)
[3]
  Insecticidal effect, Test Example 3: A (100)

## Cc1cc(C(F)(F)C(F)(F)F)ccc1NC(=O)c1c(I)cccc1C(=O)NC(C)C [compound 437]
[1]
  Insecticidal effect, Test Example 1: A (100)
[2]
  Insecticidal effect, Test Example 2: C (89-80)
[3]
  Insecticidal effect, Test Example 3: A (100)

## Cc1cc(C(F)(F)C(F)(F)C(F)(F)F)ccc1NC(=O)c1c(I)cccc1C(=O)NC(C)C [compound 438]
[1]
  Insecticidal effect, Test Example 1: A (100)
[2]
  Insecticidal effect, Test Example 2: B (99-90)
[3]
  Insecticidal effect, Test Example 3: A (100)

## Cc1cc(C(F)(C(F)(F)F)C(F)(F)F)ccc1NC(=O)c1c(I)cccc1C(=O)NC(C)C [compound 439]
[1]
  Insecticidal effect, Test Example 1: A (100)
[2]
  Insecticidal effect, Test Example 2: A (100)
[3]
  Insecticidal effect, Test Example 3: A (100)

## Cc1cc(C(F)(F)C(F)(F)C(F)(F)C(F)(F)F)ccc1NC(=O)c1c(I)cccc1C(=O)NC(C)C [compound 440]
[1]
  Insecticidal effect, Test Example 1: A (100)
[2]
  Insecticidal effect, Test Example 2: C (89-80)
[3]
  Insecticidal effect, Test Example 3: B (99-90)

## Cc1cc(OC(F)(F)C(F)(Br)C(F)(F)F)ccc1NC(=O)c1c(I)cccc1C(=O)NC(C)C (stereo not drawn) [compound 446]
[1]; mortality judged according to the criterion shown in Test Example 1
  Insecticidal effect on diamondback moth (Test Example 1), judged grade: A (100)
[2]; cabbage leaf dip, second-instar larvae
  Insecticidal effect on common cutworm (Test Example 2), judged grade: A (100)
[3]; rice lamina dip, third-instar larvae
  Insecticidal effect on rice leafroller (Test Example 3), judged grade: A (100)
